From ChEMBL document CHEMBL1135220, “Novel, potent non-covalent thrombin inhibitors incorporating p(3)-lactam scaffolds” (Bioorg Med Chem Lett, 2002)

Tests used:
[1] = Oral bioavailability in dog (fasted); format: ADME, organism-based, Canis lupus familiaris; conditions: in vivo
Trypsin = Trypsin (Homo sapiens, UniProt P07477+P07478+P35030); test: Inhibitory constant against trypsin determined in Vitro; format: protein assay
Prothrombin = Prothrombin (Homo sapiens, UniProt P00734); test: Inhibitory constant against human thrombin (FIIa) determined in vitro
Coagulation factor X [2] = target: T1, Coagulation factor X (Homo sapiens, UniProt P00742); test: Inhibitory constant against human Coagulation factor Xa determined in Vitro
T1 sequence (P00742 41-179 limits assumed): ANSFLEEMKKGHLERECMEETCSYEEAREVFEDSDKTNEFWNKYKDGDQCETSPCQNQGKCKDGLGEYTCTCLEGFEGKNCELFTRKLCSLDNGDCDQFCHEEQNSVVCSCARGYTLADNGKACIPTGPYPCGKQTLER
T1 sequence (P00742 235-488 limits assumed): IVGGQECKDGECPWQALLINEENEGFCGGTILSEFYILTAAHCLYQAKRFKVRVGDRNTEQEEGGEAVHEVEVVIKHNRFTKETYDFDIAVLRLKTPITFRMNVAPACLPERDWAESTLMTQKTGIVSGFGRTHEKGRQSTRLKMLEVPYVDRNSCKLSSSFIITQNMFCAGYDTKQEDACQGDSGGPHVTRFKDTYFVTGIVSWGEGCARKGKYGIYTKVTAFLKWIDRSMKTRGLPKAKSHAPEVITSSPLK

[3] = Area Under Curve for the compound was determined in dogs at 1 mg/kg oral dosing; 25-50 ug min/mL; format: ADME, organism-based, Canis lupus familiaris; set-up: dose 1 mg/kg, route oral; conditions: dog, in vivo
[4] = Maximum plasma concentration was determined in dogs at 1 mg/kg oral dosing; 0.05-0.2 ug/mL; format: ADME, organism-based, Canis lupus familiaris; set-up: dose 1 mg/kg, route oral; conditions: dog
[5] = Half life in dogs at 1 mg/kg oral dosing; 35-100 min; format: ADME, organism-based, Canis lupus familiaris; set-up: dose 1 mg/kg, route oral; conditions: dog, in vivo
Coagulation factor X [6] = target: T1, Coagulation factor X; test: Inhibitory constant against human Coagulation factor Xa determined in Vitro; Inact. means Inactive
Serine protease 1 = Serine protease 1 (Homo sapiens, UniProt P07477); test: Inhibitory constant against trypsin determined in Vitro; Inact. means Inactive
Serine protease 1, sequence (P07477 whole entry): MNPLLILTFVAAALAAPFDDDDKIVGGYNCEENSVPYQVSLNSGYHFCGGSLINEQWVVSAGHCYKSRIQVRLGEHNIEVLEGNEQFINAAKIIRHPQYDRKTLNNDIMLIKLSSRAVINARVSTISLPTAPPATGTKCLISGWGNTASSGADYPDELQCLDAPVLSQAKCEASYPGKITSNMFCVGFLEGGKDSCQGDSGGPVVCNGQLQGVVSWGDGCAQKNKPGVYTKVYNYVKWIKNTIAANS

[7] = Maximum plasma concentration was determined as in dogs at 1 mg/kg oral dosing Cmax; 0.05-0.2 ug/mL; format: ADME, organism-based, Canis lupus familiaris; set-up: dose 1 mg/kg, route oral; conditions: dog

| SMILES | bioavailability [1] [%] | Ki (Trypsin) [nM] | Ki (Prothrombin) [nM] | Ki (Coagulation factor X [2]) [nM] | AUC [3] [ng·h/mL] | Cmax [4] [ng/mL] | half-life [5] [min] | Ki (Coagulation factor X [6]) | Ki (Serine protease 1) | Cmax [7] [ng/mL] |
| --- | --- | --- | --- | --- | --- | --- | --- | --- | --- | --- |
| COC(=O)c1ccccc1CS(=O)(=O)N[C@H]1CCCCN(CC(=O)N[C@H](C=O)CCCNC(=N)N)C1=O | 67 | 16 |  |  |  |  |  |  |  |  |
| COC(=O)c1ccccc1CS(=O)(=O)N[C@H]1CCCCN(CC(=O)N[C@@H](CCCNC(=N)N)C(=O)O)C1=O |  |  | 0.95 | 93 |  |  |  |  |  |  |
| N=C(N)NCCC[C@@H](C=O)NC(=O)CN1CCCC[C@H](NS(=O)(=O)Cc2ccccc2)C1=O | 66 | 18 |  |  |  |  |  |  |  |  |
| N=C(N)NCCC[C@H](NC(=O)CN1CCCC[C@H](NS(=O)(=O)Cc2ccccc2)C1=O)C(=O)O |  |  | 0.54 | 40 |  |  |  |  |  |  |
| N=C(N)c1ccc(CC(=O)CN2CCCC[C@H](NS(=O)(=O)c3ccccc3)C2=O)cc1 |  | 8.3 | 19.4 | > 338 | ~417 | ~50 | ~35 |  |  |  |
| N=C(N)c1ccc(CC(=O)CN2CCCC[C@H](NS(=O)(=O)c3ccc4c(c3)CCO4)C2=O)c(F)c1 |  | 7.6 | 29.8 | > 338 | ~417 | ~50 | ~35 |  |  |  |
| N=C(N)c1ccc(CC(=O)CN2CCCC[C@H](NS(=O)(=O)c3ccc4c(c3)CCO4)C2=O)s1 |  | 5.9 | 0.6 | 52.7 | ~417 | ~50 | ~35 |  |  |  |
| O=C(Cc1ccc2[nH]ncc2c1)CN1CCCC[C@H](NS(=O)(=O)c2ccc3c(c2)CCO3)C1=O |  |  | 283 |  | ~417 | ~50 | ~35 | Not Active | Not Active |  |
| COc1ccc(S(=O)(=O)N[C@H]2CCCCN(CC(=O)CC3CCN(C(=N)N)CC3)C2=O)cc1OC |  | > 1678 | 85.7 | > 338 | ~417 | ~50 | ~35 |  |  |  |
| N=C(N)N1CCC(CC(=O)[C@@H]2Cc3cccc4c3N2C(=O)[C@@H](NS(=O)(=O)c2ccc3c(c2)CCO3)CC4)CC1 |  | 2.5 | 10.8 | 49.2 | ~417 |  | ~35 |  |  | ~50 |
| N[C@H]1CC[C@H](CC(=O)CN2CCCC[C@H](NS(=O)(=O)c3ccc4c(c3)CCO4)C2=O)CC1 |  | > 1678 | 53.2 |  | ~417 | ~50 | ~35 | Not Active |  |  |
| N/C(=N\O)c1ccc(CC(=O)CN2CCCC[C@H](NS(=O)(=O)c3ccc4c(c3)CCO4)C2=O)cc1 |  | 80.5 | 240 |  | ~417 | ~50 | ~35 | Not Active |  |  |
| COc1ccc(OC)c(S(=O)(=O)N[C@H]2CCCCN(CC(=O)Cc3ccc(C(=N)N)cc3)C2=O)c1 |  | 35.2 | 9 | > 338 | ~417 | ~50 | ~35 |  |  |  |
| N=C(N)N1CCC(CC(=O)CN2CCCC[C@H](NS(=O)(=O)c3ccc4c(c3)CCO4)C2=O)CC1 |  | 872.5 | 23.8 |  | ~417 | ~50 | ~35 | Not Active |  |  |
| N[C@H]1CC[C@H](CC(=O)CN2CCCC[C@H](NS(=O)(=O)Cc3ccccc3)C2=O)CC1 |  |  | 195 |  | ~417 | ~50 | ~35 | Not Active | Not Active |  |
| Cc1nc(N)ccc1CC(=O)CN1CCCC[C@H](NS(=O)(=O)Cc2ccccc2)C1=O |  | 1678 | 92.9 |  | ~417 | ~50 | ~35 | Not Active |  |  |
| N=C(N)c1ccc(CC(=O)CN2CCCC[C@H](NS(=O)(=O)Cc3ccccc3)C2=O)cc1 |  | 84.6 | 19.4 | 315 | ~417 | ~50 | ~35 |  |  |  |
| N/C(=N\O)c1ccc(CC(=O)CN2C(=O)[C@@H](NS(=O)(=O)c3ccc4c(c3)CCO4)CCc3ccccc32)cc1 |  |  | > 397 |  | ~417 | ~50 | ~35 | Not Active | Not Active |  |
| N=C(N)c1ccc(CC(=O)CN2C(=O)[C@@H](NS(=O)(=O)c3ccc4c(c3)CCO4)CCc3ccccc32)cc1 |  | 19.5 | 14.4 | > 338 | ~417 | ~50 | ~35 |  |  |  |
| COc1ccc(OC)c(S(=O)(=O)N[C@H]2CCCCN(CC(=O)CC3CCN(C(=N)N)CC3)C2=O)c1 |  |  | 167 |  | ~417 | ~50 | ~35 | Not Active | Not Active |  |
| COc1ccc(S(=O)(=O)N[C@H]2CCCCN(CC(=O)Cc3ccc(C(=N)N)cc3)C2=O)cc1OC |  | 11.6 | 13.3 | > 338 | ~417 | ~50 | ~35 |  |  |  |
| Cc1nc(N)ccc1CC(=O)CN1CCC[C@H](NS(=O)(=O)Cc2ccccc2)C1=O |  | > 1678 | > 397 |  | ~417 | ~50 | ~35 | Not Active |  |  |
| N=C(N)N1CCC(CC(=O)CN2CCCC[C@H](NS(=O)(=O)c3ccccc3)C2=O)CC1 |  | 1678 | 71.4 | > 338 | ~417 | ~50 | ~35 |  |  |  |
| N=C(N)c1ccc(CC(=O)CN2CCCC[C@H](NS(=O)(=O)c3ccc4c(c3)CCO4)C2=O)cc1 |  | 3.2 | 6.2 | > 338 | ~417 | ~50 | ~35 |  |  |  |
| N=C(N)c1ccc(CC(=O)CN2CCCC[C@H](NS(=O)(=O)c3ccc4ccccc4c3)C2=O)cc1 |  | 12.3 | 163 | > 338 | ~417 | ~50 | ~35 |  |  |  |
| Cc1nc(N)ccc1CC(=O)CN1CCCC[C@H](NS(=O)(=O)c2ccc3c(c2)CCO3)C1=O |  | 1678 | 39.5 | > 338 | ~417 | ~50 | ~35 |  |  |  |
| N=C(N)N1CCC(CC(=O)CN2C(=O)[C@@H](NS(=O)(=O)c3ccc4c(c3)CCO4)CCc3ccccc32)CC1 |  |  | 61 |  | ~417 | ~50 | ~25 | Not Active | Not Active |  |
